The record followed here is patent publication US11452731B2, “Method of treating and preventing loss of cognition” (ENDORECHERCHE, INC., priority 2009, dated 2022).

Experiment [1] in a line: Uterine and vaginal weight in ovariectomized BALB/c mice treated orally for 9 days with or without estrone (Example 3). In kind it is in vivo. To be noted: for inhibition of estrone-stimulated uterine weight / inhibition of vaginal weight (estrone-stimulated): OVX mice + estrone, oral 9 days. The procedure: Female BALB/c mice (BALB/cAnNCrlBR) weighing 18-20 g were obtained from Charles-River, Inc. (St-Constant, Quebec, Canada) and housed 5 per cage in a temperature (23±1° C.)- and light (12 h light/day, lights on at 7:15)-controlled environment. The mice were fed rodent chow and tap water ad libitum. The animals were ovariectomized (OVX) under Isoflurane anesthesia via bilateral flank incisions and randomly assigned to groups of 10 animals. Ten mice were kept intact as controls.
In the second experiment (Table 6), TSE 424 was administered orally by gavage once daily at doses of 1, 3, 10 or 30 μg/animal for 9 days, starting 2 days after ovariectomy. In both experiments, to evaluate the antiestrogenic activity, treatment with estrone (E1, […], s.c. injection, twice daily) was started 5 days post-ovariectomy and was administered for a 6 day-period. Compounds were dissolved in ethanol (4% final concentration) and administered in 0.4% methylcellulose. Mice in the intact and OVX control groups received the vehicle alone (4% ETOH-0.4% methylcellulose) during the 9-day period. The animals were killed by exsanguination at the abdominal aorta on the 11th morning following ovariectomy. The uteri and vagina were rapidly dissected, weighed, and kept in 10% buffered formalin for further histologic examination.

A short description of experiment [2]: 26-week treatment of ovariectomized rats: lumbar spine BMD, total body fat, serum cholesterol, ALP (Example 4, experiment 2). In kind it is in vivo, rat. To be noted: OVX rats, 26 weeks. As to the method: Ten to twelve week-old female Sprague-Dawley rats (Crl:CD(SD)Br) (Charles River Laboratory, St-Constant, Canada) weighing approximately 220-270 g at start of treatment were used. […] The animals were housed individually and were allowed free access to tap water and a pelleted certified rodent feed (Lab Diet 5002, Ralston Purina, St-Louis, Mo.). Experiments were conducted in an animal facility approved by the Canadian Council on Animal Care (CCAC) and the Association for Assessment and Accreditation of Laboratory Animal Care (AAALAC) in accordance with the CCAC Guide for Care and Use of Experimental Animals. […] Treatments were initiated on day 2 of the study and were performed once daily during 26 weeks. In both experiments, animals not receiving a test article were treated with the appropriate vehicle alone during the same period. […] QDR 4500A, Hologic, Waltham, Mass.) and a Regional High Resolution Scan software. […] Samples were processed for serum preparation and frozen at -80° C. until assay. Serum cholesterol levels and alkaline phospatase activity (ALP) were determined using the Boehringer Mannheim Diagnostic Hitachi 911 Analyzer (Boehringer Mannheim Diagnostic Laboratory Systems).

Experiment [3] in a line: 5-week treatment of ovariectomized rats with SERMs alone or with DHEA: BMD of lumbar spine, femur, tibia (Example 5). The format is in vivo, rat. The note with it: OVX rats, 5 weeks. As to the method: Ten to twelve week-old female Sprague-Dawley rats (Crl:CD(SD)Br) (Charles River Laboratory, St-Constant, Canada) weighing approximately 220-270 g at start of treatment were used. The animals were acclimatized to the environmental conditions (temperature: 22±3° C.; humidity: 50±20%; 12-h light-12-h dark cycles, lights on at 07:15 h) for at least 1 week before starting the experiments. The animals were housed individually and were allowed free access to tap water and a pelleted certified rodent feed (Lab Diet 5002, Ralston Purina, St-Louis, Mo.). Experiments were conducted in an animal facility approved by the Canadian Council on Animal Care (CCAC) and the Association for Assessment and Accreditation of Laboratory Animal Care (AAALAC) in accordance with the CCAC Guide for Care and Use of Experimental Animals.
On day 1 of the study, the animals of the appropriate groups were bilaterally ovariectomized (Ovx) under isoflurane anesthesia. The DHEA was applied topically on the dorsal skin as a solution in 50% ethanol-50% propylene glycol while the tested SERMs were administered as suspension in 0.4% methylcellulose by oral gavage. Treatments were initiated on day 2 of the study and were performed once daily during 5 weeks.
After 5 weeks of treatment, individual rats under Isoflurane anesthesia had their lumbar spine, femur and tibia scanned using dual energy x-ray absorptiometry (DEXA; QDR 4500A, Hologic, Waltham, Mass.) and a Regional High Resolution Scan software. The bone mineral density (BMD) of the lumbar spine (vertebrae L2 to L4), distal femoral metaphysis (DFM) and proximal tibial metaphysis (PTM) were determined.

For experiment [4], the system named is MCF-7 human breast cancer cells. The experiment is described as follows: Proliferation (DNA content) of human breast cancer MCF-7 cells (Example 7). In kind it is cell-based. To be noted: for IC50: Homo sapiens, read-out: Inhibition of 1 nM E2 stimulation of DNA by tested compounds IC50. The text has this: MCF-7 human breast cancer cells were obtained from the American Type Culture Collection #HTB 22 at passage 147 and routinely grown in phenol red-free Dulbecco's Modified Eagle's-Ham's F12 medium, the supplements mentioned above and 5% FBS. The MCF-7 human breast adenocarcinoma cell line was derived from the pleural effusion of a patient. MCF-7 cells were used between passages 148 and 165 and subcultured weekly
Thereafter, medium was replaced with fresh medium containing the indicated concentrations of compounds diluted from 1000×stock solutions in 99% redistilled ethanol in the presence or absence of E2. Control cells received only the ethanolic vehicle (0.1% EtOH, v/v). Cells were incubated for the specified time intervals with medium changes at 2- or 3-day intervals. Cell number was determined by measurement of DNA content.
All results are expressed as means±SEM.

Experiment [5] relates to human Ishikawa cells. The experiment can be described thus: Alkaline phosphatase activity in human endometrial adenocarcinoma Ishikawa cells (Example 6).
The mark [6] stands for this setting: Premarin 0.25 mg/kg, SERMs 2.5 mg/kg.
[7] abbreviates: OVX mice, absence of estrone, 10 μg daily (no-effect statements: 1 μg and 10 μg).

Read-outs that look alike come from different tables or passages of the source.

Turning to `Cc1c(-c2ccc(O)cc2)n(Cc2ccc(OCCN3CCCCCC3)cc2)c2ccc(O)cc12` [TSE 424, 1-[[4-[2-(hexahydro-1H-azepin-1-yl)ethoxy]phenyl]methyl]-2-(4-hydroxyphenyl)-3-methyl-1H-indol-5-ol, acetate], in experiment [1] (OVX + E1, 1 μg), the “UTERINE WEIGHT” value was 105.5 ± 6.1 mg and the “VAGINAL WEIGHT” value came out at 54.2 ± 3.0 mg. Also, in experiment [1] (OVX + E1, 3 μg), the “UTERINE WEIGHT” value is reported as 69.7 ± 4.4 mg and the “VAGINAL WEIGHT” value is given as 47.2 ± 1.6 mg. For the same molecule, in experiment [1] (OVX + E1, 10 μg), the “UTERINE WEIGHT” value is 42.1 ± 2.7 mg and the “VAGINAL WEIGHT” value was determined as 31.1 ± 2.3 mg. Further, in experiment [1] (OVX + E1, 30 μg), the “UTERINE WEIGHT” value was 21.7 ± 1.7 mg and the “VAGINAL WEIGHT” value came to 16.7 ± 1.8 mg. In experiment [1] (1 μg daily), the “inhibition of estrone-stimulated uterine weight” value is 12%. Also, in experiment [1] (3 μg daily), the “inhibition of estrone-stimulated uterine weight” value came to 47% and the “inhibition of vaginal weight (estrone-stimulated)” value (shortened to “inhibition of vaginal weight”) amounted to 16%. Moreover, in experiment [1] (10 μg daily), the “inhibition of estrone-stimulated uterine weight” value was 74% and the “inhibition of vaginal weight” value amounted to 56%. Moreover, in experiment [1] (30 μg daily), the “inhibition of estrone-stimulated uterine weight” value came to 94% and the “inhibition of vaginal weight” value is reported as 93%. Besides, in experiment [1] (OVX without E1, 3 μg), the “UTERINE WEIGHT” value is recorded as 18.3 ± 1.2 mg and the “VAGINAL WEIGHT” value came out at 14.1 ± 1.2 mg. For the same molecule, in experiment [1] (OVX without E1, 30 μg), the “UTERINE WEIGHT” value is 17.7 ± 1.6 mg and the “VAGINAL WEIGHT” value amounted to 15.3 ± 2.0 mg. Besides, in experiment [2], the ALP is 85 ± 6 IU, the “CHOLESTEROL (serum)” value is 1.15 ± 0.05 mmol/L, the “TOTAL FAT” value is on record as 28.0 ± 1.8 % and the “reversal of the fat increase induced by estrogen deficiency” value is reported as 75%. Further, in experiment [2] (setting [6]), the “LUMBAR SPINE BMD” value was 0.2252 ± 0.0058 g/cm^2 and the “LUMBAR SPINE Prevention of Bone Loss” value was determined as 49%. In experiment [3], the “DISTAL FEMORAL METAPHYSIS (DFM) BMD” value is listed as 0.2929 ± 0.0042 g/cm^2, the “DISTAL FEMORAL METAPHYSIS (DFM) Prevention of Bone Loss” value was determined as 70%, the “PROXIMAL TIBIAL METAPHYSIS (PFM) BMD” value was found to be 0.2750 ± 0.0039 g/cm^2 and the “PROXIMAL TIBIAL METAPHYSIS (PFM) Prevention of Bone Loss” value is listed as 71%. In experiment [3] (SERMs 2.5 mg/kg, DHEA 80 mg/kg), the “LUMBAR SPINE (L2-L4) BMD” value was 0.2162 ± 0.0035 g/cm^2 and the “LUMBAR SPINE (L2-L4) Prevention of Bone Loss” value was 53%. Further, the IC50 in experiment [4] (MCF7, MCF-7, Experiment 1) was determined as 3.68 nM.
Take `Oc1ccc2c(c1)CC[C@H](c1ccccc1)[C@@H]2c1ccc(OCCN2CCCC2)cc1` [Lasofoxifene (free base)]: the “inhibition of estrone-stimulated uterine weight” value was “no inhibitory effect” in experiment [1] (1 μg daily), 25% in experiment [1] (3 μg daily) and 44% in experiment [1] (10 μg daily). In experiment [1] (10 μg daily), the “inhibition of vaginal weight” value is recorded as 37%. Further, the “stimulation of uterine weight (estrogenic effect)” value in experiment [1] (setting [7]) came out at 93%. In experiment [1] (setting [7]), the “stimulation of vaginal weight (estrogenic effect)” value is given as 73%. Also, the concentration for half-maximal inhibition (IC50) in experiment [4] (MCF7, MCF-7, Experiment 2) is 0.379 nM; in experiment [5] (Homo sapiens, Ishikawa, 120 h, read-out: Inhibition of 1 nM E2-induced stimulation of alkaline phosphatase IC50), 4.24 nM. Also, the “Stimulation of DNA by tested compounds % of 1 nM E2 stimulation” value in experiment [4] (MCF-7, Experiment 2) was “N.S”. The Emax in experiment [5] (Homo sapiens, Ishikawa, 120 h, read-out: Maximal stimulation of alkaline phosphatase % of 1 nM E2 stimulation) is 17.9%. Further, the “Maximal inhibition of 1 nM E2-induced stimulation of alkaline phosphatase” value in experiment [5] (Ishikawa cells, 5-day incubation, 1 nM E2) is 85.14 (1).

Broadly, the IC50 is the concentration needed to halve the response being measured.
